Assay results: US20170190671A1, “BIS(ARYL)CATECHOL DERIVATIVES AS HERBICIDES” (E I DU PONT DE NEMOURS AND COMPANY, priority 2014, published 2017)

Legend:
Type in all cases: in vivo
[1] = test system: ducksalad (Heteranthera limosa); assay: Test B flooded paddy; conditions: Heteranthera limosa, 336 h; 250 g ai/ha, Flood, 13 to 15 days, scale 0 (no effect) to 100 (complete control); read-out: Plant response rating, Ducksalad
In short: (§1)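 Compound was added to standing water 3 cm above soil, flood maintained, and plants held in a greenhouse before visual scoring against controls at 13 to 15 days.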

[2] = test system: sedge, umbrella (small-flower umbrella sedge, Cyperus difformis); assay: Test B flooded paddy; conditions: Cyperus difformis, 336 h; 250 g ai/ha, Flood, 13 to 15 days, scale 0 (no effect) to 100 (complete control); read-out: Plant response rating, Sedge, Umbrella
In short: as §1

[3] = test system: barnyardgrass (Echinochloa crus-galli); assay: Test B flooded paddy; conditions: Echinochloa crus-galli, 336 h; 250 g ai/ha, Flood, 13 to 15 days, scale 0 (no effect) to 100 (complete control); read-out: Plant response rating, Barnyardgrass
In short: as §1

[4] = test system: rice (Oryza sativa); assay: Test B flooded paddy; conditions: Oryza sativa, 336 h; 250 g ai/ha, Flood, 13 to 15 days, scale 0 (no effect) to 100 (complete control); read-out: Plant response rating, Rice
In short: as §1

[5] = test system: ragweed (common ragweed, Ambrosia elatior); assay: Test C preemergence; conditions: Ambrosia artemisiifolia, pre-emergence, 336 h, scale 0 to 100, read-out: Plant response rating, Ragweed; for pest or weed control at 31 g/ha: 31 g ai/ha; for pest or weed control at 125 g/ha: 125 g ai/ha; for pest or weed control at 62 g/ha: 62 g ai/ha; for pest or weed control at 16 g/ha: Preemergence, 16 g ai/ha
From the text: (§2) Seeds of plant species selected from blackgrass (Alopecurus myosuroides), Italian ryegrass (Lolium multiflorum), winter wheat (Triticum aestivum), galium (catchweed bedstraw, Galium aparine), corn (Zea mays), large (Lg) crabgrass (Digitaria sanguinalis), giant foxtail (Setaria faberii), johnsongrass (Sorghum halepense), lambsquarters (Chenopodium album), morningglory (Ipomoea coccinea), yellow nutsedge (Cyperus esculentus), pigweed (Amaranthus retroflexus), ragweed (common ragweed, Ambrosia elatior), soybean (Glycine max), barnyardgrass (Echinochloa crus-galli), oilseed rape (Brassica napus), waterhemp (common waterhemp, Amaranthus rudis), and velvetleaf (Abutilon theophrasti) were planted into a blend of loam soil and sand and treated preemergence with test chemicals formulated in a non-phytotoxic solvent mixture which included a surfactant.
(§3) At the same time, plants selected from these crop and weed species and also chickweed (common chickweed, Stellaria media), kochia (Kochia scoparia), and wild oat (Avena fatua), were planted in pots containing Redi-Earth® planting medium (Scotts Company, 14111 Scottslawn Road, Marysville, Ohio 43041) comprising spaghnum peat moss, vermiculite, wetting agent and starter nutrients and treated with postemergence applications of test chemicals formulated in the same manner. Plants ranged in height from 2 to 18 cm (1- to 4-leaf stage) for postemergence treatments. Treated plants and controls were maintained in a greenhouse for 13 to 15 days, after which time all species were compared to controls and visually evaluated. Plant response ratings, summarized in Table C, are based on a scale of 0 to 100 where 0 is no effect and 100 is complete control. A dash (-) response means no test result.

[6] = test system: galium (catchweed bedstraw, Galium aparine); assay: Test C preemergence; conditions: Galium, pre-emergence, 336 h, scale 0 to 100, read-out: Plant response rating, Galium; for pest or weed control at 31 g/ha: 31 g ai/ha; for pest or weed control at 31 g/ha / pest or weed control at 62 g/ha / pest or weed control at 125 g/ha: preemergence; for pest or weed control at 62 g/ha: 62 g ai/ha; for pest or weed control at 125 g/ha: 125 g ai/ha; for pest or weed control at 16 g/ha: Preemergence, 16 g ai/ha
From the text: as §2, §3

[7] = test system: wheat (Triticum aestivum); assay: Test A postemergence; conditions: Triticum aestivum, post-emergence, 240 h, 0 to 100 scale, read-out: Plant response rating, Wheat; for plant injury at 125 g/ha: 125 g ai/ha; for plant injury at 500 g/ha: 500 g ai/ha
In short: (§4)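 Greenhouse pot test, loam/sand soil. Formulation: non-phytotoxic solvent mix plus surfactant. Pre: directed spray onto soil after sowing. Post: plants at 1–2 leaf, 2–10 cm. Rated visually vs untreated controls at ~10 d, 0 (no effect) to 100 (complete control).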

[8] = test system: corn (Zea mays); assay: Test A postemergence; conditions: Zea mays, post-emergence, 240 h, 0 to 100 scale; for Corn plant response rating (crop injury, 0 = no effect, 100 = complete kill) at 125 g/ha: 125 g ai/ha; for Corn plant response rating (crop injury, 0 = no effect, 100 = complete kill) at 500 g/ha: 500 g ai/ha
In short: as §4

[9] = test system: giant foxtail (Setaria faberii); assay: Test A postemergence; conditions: Setaria faberi, post-emergence, 240 h, 0 to 100 scale, read-out: Plant response rating, Foxtail, Giant; for pest or weed control at 125 g/ha: 125 g ai/ha; for pest or weed control at 500 g/ha: 500 g ai/ha
In short: as §4

[10] = test system: barnyardgrass (Echinochloa crus-galli); assay: Test A postemergence; conditions: Echinochloa crus-galli, post-emergence, 240 h, 0 to 100 scale, read-out: Plant response rating, Barnyardgrass; for pest or weed control at 125 g/ha: 125 g ai/ha; for pest or weed control at 500 g/ha: 500 g ai/ha
In short: as §4

[11] = test system: pigweed (Amaranthus retroflexus); assay: Test A postemergence; conditions: Amaranthus retroflexus, post-emergence, 240 h, 0 to 100 scale, read-out: Plant response rating, Pigweed; for pest or weed control at 125 g/ha: 125 g ai/ha; for pest or weed control at 500 g/ha: 500 g ai/ha
In short: as §4

[12] = test system: giant foxtail (Setaria faberii); assay: Test A preemergence; conditions: Setaria faberi, pre-emergence, 240 h; for pest or weed control at 125 g/ha: 125 g ai/ha; for pest or weed control at 500 g/ha: 500 g ai/ha
In short: as §4

[13] = test system: barnyardgrass (Echinochloa crus-galli); assay: Test A preemergence; conditions: Echinochloa crus-galli, pre-emergence, 240 h, 0 to 100 scale, read-out: Plant response rating, Barnyardgrass; for pest or weed control at 125 g/ha: 125 g ai/ha; for pest or weed control at 500 g/ha: 500 g ai/ha
In short: as §4

[14] = test system: pigweed (Amaranthus retroflexus); assay: Test A preemergence; conditions: Amaranthus retroflexus, pre-emergence, 240 h; for pest or weed control at 125 g/ha: 125 g ai/ha; for pest or weed control at 500 g/ha: 500 g ai/ha
In short: as §4

[15] = 0 to 100 scale, read-out: Plant response rating, Foxtail, Giant
[16] = 0 to 100 scale, read-out: Plant response rating, Pigweed
[17] = 0 to 100 scale (0 no effect, 100 complete control), read-out: Foxtail, Giant plant response rating
[18] = 0 to 100 scale (0 no effect, 100 complete control), read-out: Pigweed plant response rating

N#Cc1cccc(Oc2ncc(Cl)cn2)c1Oc1ncc(Cl)cn1 [Compound 3, 2,3-bis[(5-chloro-2-pyrimidinyl)oxy]benzonitrile]
pest or weed control at 250 g/ha [1]: 90% | pest or weed control at 250 g/ha [2]: 90% | pest or weed control at 250 g/ha [3]: 20% | plant injury at 250 g/ha [4]: 35% | pest or weed control at 31 g/ha ([5]; preemergence): 90% | pest or weed control at 125 g/ha ([5]; preemergence): 90% | pest or weed control at 250 g/ha ([5]; 250 g ai/ha, preemergence): 100% | pest or weed control at 31 g/ha [6]: 90% | pest or weed control at 62 g/ha [6]: 90% | pest or weed control at 125 g/ha [6]: 90% | plant injury at 125 g/ha [7]: 60% | plant injury at 500 g/ha [7]: 80% | Corn plant response rating (crop injury, 0 = no effect, 100 = complete kill) at 125 g/ha [8]: 50% | Corn plant response rating (crop injury, 0 = no effect, 100 = complete kill) at 500 g/ha [8]: 80% | pest or weed control at 125 g/ha [9]: 90% | pest or weed control at 500 g/ha [9]: 90% | pest or weed control at 125 g/ha [10]: 90% | pest or weed control at 500 g/ha [10]: 90% | pest or weed control at 125 g/ha [11]: 100% | pest or weed control at 500 g/ha [11]: 100% | pest or weed control at 125 g/ha [12, 15]: 100% | pest or weed control at 500 g/ha [12, 15]: 100% | pest or weed control at 125 g/ha [13]: 100% | pest or weed control at 500 g/ha [13]: 100% | pest or weed control at 125 g/ha [14, 16]: 100% | pest or weed control at 500 g/ha [14, 16]: 100%

Clc1cnc(Oc2cccc(Br)c2Oc2ncc(Cl)cn2)nc1 [Compound 19, 2,2′-[[3-bromo-1,2-phenylene]bis(oxy)]bis[5-chloropyrimidine]]
pest or weed control at 250 g/ha [1]: 95% | pest or weed control at 250 g/ha [2]: 85% | pest or weed control at 250 g/ha [3]: 15% | plant injury at 250 g/ha [4]: 25% | pest or weed control at 31 g/ha ([5]; preemergence): 30% | pest or weed control at 62 g/ha ([5]; preemergence): 55% | pest or weed control at 125 g/ha ([5]; preemergence): 60% | pest or weed control at 16 g/ha [5]: 0% | pest or weed control at 31 g/ha [6]: 100% | pest or weed control at 62 g/ha [6]: 100% | pest or weed control at 125 g/ha [6]: 100% | pest or weed control at 16 g/ha [6]: 85% | plant injury at 125 g/ha [7]: 50% | plant injury at 500 g/ha [7]: 60% | Corn plant response rating (crop injury, 0 = no effect, 100 = complete kill) at 125 g/ha [8]: 50% | Corn plant response rating (crop injury, 0 = no effect, 100 = complete kill) at 500 g/ha [8]: 60% | pest or weed control at 125 g/ha [9]: 80% | pest or weed control at 500 g/ha [9]: 90% | pest or weed control at 125 g/ha [10]: 70% | pest or weed control at 500 g/ha [10]: 100% | pest or weed control at 125 g/ha [11]: 100% | pest or weed control at 500 g/ha [11]: 100% | pest or weed control at 125 g/ha [12, 17]: 100% | pest or weed control at 500 g/ha [12, 15]: 100% | pest or weed control at 125 g/ha [13]: 80% | pest or weed control at 500 g/ha [13]: 90% | pest or weed control at 125 g/ha [14, 18]: 100% | pest or weed control at 500 g/ha [14, 16]: 100%

Fc1cccc(Oc2ncc(Cl)cn2)c1Oc1ncc(Cl)cn1 [Compound 21, 2,2′-[[3-fluoro-1,2-phenylene]bis(oxy)]bis[5-chloropyrimidine]]
pest or weed control at 250 g/ha [1]: 100% | pest or weed control at 250 g/ha [2]: 90% | pest or weed control at 250 g/ha [3]: 35% | plant injury at 250 g/ha [4]: 40% | pest or weed control at 31 g/ha ([5]; preemergence): 85% | pest or weed control at 62 g/ha ([5]; preemergence): 85% | pest or weed control at 125 g/ha ([5]; preemergence): 85% | pest or weed control at 16 g/ha [5]: 65% | pest or weed control at 31 g/ha [6]: 100% | pest or weed control at 62 g/ha [6]: 100% | pest or weed control at 125 g/ha [6]: 100% | pest or weed control at 16 g/ha [6]: 98% | plant injury at 125 g/ha [7]: 50% | plant injury at 500 g/ha [7]: 60% | Corn plant response rating (crop injury, 0 = no effect, 100 = complete kill) at 125 g/ha [8]: 50% | Corn plant response rating (crop injury, 0 = no effect, 100 = complete kill) at 500 g/ha [8]: 60% | pest or weed control at 125 g/ha [9]: 90% | pest or weed control at 500 g/ha [9]: 90% | pest or weed control at 125 g/ha [10]: 80% | pest or weed control at 500 g/ha [10]: 90% | pest or weed control at 125 g/ha [11]: 100% | pest or weed control at 500 g/ha [11]: 100% | pest or weed control at 125 g/ha [12, 17]: 100% | pest or weed control at 500 g/ha [12, 15]: 100% | pest or weed control at 125 g/ha [13]: 90% | pest or weed control at 500 g/ha [13]: 100% | pest or weed control at 125 g/ha [14, 18]: 100% | pest or weed control at 500 g/ha [14, 16]: 100%
